The source made the active and inactive calls. The calls are words filed in the database; no cut-off is given here.
Columns and labels:
Mus musculus [1] = assay: Antiobesity activity in mouse assessed as reduction in utero fat at 0.02% administered every day through diet for 10 days measured after day 10 relative to control; assay type: functional; design: scale not given: the % may be the effect or the level left
[2] = (§1) Chronic toxicity in po dosed mouse assessed as mortality administered as qd for 21 days; assay type: organism-based; conditions: in vivo, read-out: MNTD
Mus musculus [3] = assay: Toxicity in mouse assessed as liver hypertrophy at 1000 mg/kg, po administered for 21 days; assay type: organism-based; design: dose 1000 mg/kg, route oral; conditions: in vivo, 504 h
[4] = Therapeutic index, ratio of MNTD for chronic toxicity in po dosed mouse to ED25 for antiobesity activity in mouse assessed as reduction in utero fat; assay type: organism-based; conditions: in vivo, read-out: TI
Mus musculus [5] = assay: Antiobesity activity in mouse assessed as reduction in utero fat administered every day through diet for 10 days measured after day 10; assay type: functional; conditions: 240 h
Mus musculus [6] = assay: Antiobesity activity in mouse assessed as reduction in utero fat at 0.01% administered every day through diet for 10 days measured after day 10 relative to control; assay type: functional; design: scale not given: the % may be the effect or the level left
Rattus norvegicus [7] = species on record: Rattus norvegicus; assay: Toxicity in rat assessed as lymphopenia; assay type: organism-based; conditions: in vivo
Rattus norvegicus [8] = assay: Antiobesity activity in rat assessed as reduction in food intake at 80 mg/kg administered every day through diet for 5 weeks measured every week for 5 weeks relative to control; assay type: functional; design: scale not given: the % may be the effect or the level left
Rattus norvegicus [9] = assay: Antiobesity activity in rat assessed as reduction in food intake at 80 mg/kg, po qd administered for 5 days measured every day for 5 days relative to control; assay type: functional; design: scale not given: the % may be the effect or the level left
Canis familiaris [10] = assay: Toxicity in Beagle dog assessed as emesis up to 150 mg/kg administered through gelatin capsule for every week for 6 weeks; assay type: organism-based, Canis lupus familiaris; design: dose 150 mg/kg; conditions: in vivo, 1008 h
Rattus norvegicus [11] = assay: Toxicity in rat assessed as decrease in liver weight at 80 mg/kg, po qd administered for 5 days measured on day 6 relative to control; assay type: organism-based; design: dose 80 mg/kg, route oral; scale not given: the % may be the effect or the level left; conditions: in vivo, 120 h
Rattus norvegicus [12] = species on record: Rattus norvegicus; assay: Toxicity in rat assessed as estrogenic activity; assay type: organism-based; conditions: in vivo
Mus musculus [13] = assay: Reduction of plasma insulin level in mouse at 0.04% administered every day through diet for 10 days measured on day 10 by double antibody method relative to control; assay type: functional; design: scale not given: the % may be the effect or the level left
Rattus norvegicus [14] = assay: Antiobesity activity in rat assessed as reduction in body weight at 80 mg/kg, po qd administered for 5 days measured on day 6 relative to control; assay type: functional; design: scale not given: the % may be the effect or the level left
Rattus norvegicus [15] = assay: Toxicity in rat assessed as decrease in liver weight at 80 mg/kg administered every day through diet for 5 weeks measured after 5th week relative to control; assay type: organism-based; design: dose 80 mg/kg; scale not given: the % may be the effect or the level left; conditions: in vivo, po, 840 h
Canis familiaris [16] = assay: Antiobesity activity in Beagle dog assessed as decrease in body weight at 4 mg/kg administered every day through gelatin capsule for 6 weeks measured every week for 6 weeks relative to placebo control; assay type: functional, Canis lupus familiaris; design: scale not given: the % may be the effect or the level left
Rhesus monkey = assay: Toxicity in monkey assessed as estrogenic activity; assay type: organism-based, Macaca mulatta; conditions: in vivo
Canis familiaris [17] = assay: Antiobesity activity in Beagle dog assessed as decrease in food intake at 4 mg/kg administered every day through gelatin capsule for 6 weeks measured every day 2 hrs post feeding relative to placebo control; assay type: functional, Canis lupus familiaris; design: scale not given: the % may be the effect or the level left
Rattus norvegicus [18] = assay: Toxicity in rat assessed as increase in adrenal weight at 80 mg/kg administered every day through diet for 5 weeks measured after 5th week relative to control; assay type: organism-based; design: dose 80 mg/kg; conditions: in vivo, po, 840 h
Rattus norvegicus [19] = assay: Toxicity in rat assessed as increase in adrenal weight at 80 mg/kg, po qd administered for 5 days measured on day 6 relative to control; assay type: organism-based; design: dose 80 mg/kg, route oral; conditions: in vivo, 120 h
Rattus norvegicus [20] = assay: Antiobesity activity in rat assessed as reduction in body weight at 80 mg/kg administered every day through diet for 5 weeks measured for 5 weeks relative to control; assay type: functional; design: scale not given: the % may be the effect or the level left
Rattus norvegicus [21] = assay: Antiobesity activity in rat assessed as reduction in utero fat at 80 mg/kg administered every day through diet for 5 weeks measured after 5th week relative to control; assay type: functional; design: scale not given: the % may be the effect or the level left
Mus musculus [22] = assay: Antiobesity activity in mouse assessed as reduction in utero fat at 0.04% administered every day through diet for 10 days measured after day 10 relative to control; assay type: functional; design: scale not given: the % may be the effect or the level left
Mus musculus [23] = assay: Reduction of plasma insulin level in mouse at 0.01% administered every day through diet for 10 days measured on day 10 by double antibody method relative to control; assay type: functional; design: scale not given: the % may be the effect or the level left
Mus musculus [24] = assay: Effect on blood glucose level in mouse at 0.01% administered every day through diet for 10 days measured on day 10 by glucose oxidase method; assay type: functional, organism-based
Canis familiaris [25] = assay: Toxicity in Beagle dog assessed as emesis up to 10 mg/kg administered through gelatin capsule for every week for 6 weeks; assay type: organism-based, Canis lupus familiaris; design: dose 10 mg/kg; conditions: in vivo, 1008 h
Mus musculus [26] = assay: Antiobesity activity in mouse assessed as reduction in utero fat at 0.08% administered every day through diet for 10 days measured after day 10 relative to control; assay type: functional; design: scale not given: the % may be the effect or the level left
Rattus norvegicus [27] = assay: Antiobesity activity in rat assessed as reduction in utero fat at 100 mg/kg, po qd administered for 5 days measured on day 6 relative to control; assay type: functional; design: scale not given: the % may be the effect or the level left
Rattus norvegicus [28] = assay: Antiobesity activity in rat assessed as reduction in food intake at 100 mg/kg, po qd administered for 5 days measured every day for 5 days relative to control; assay type: functional; design: scale not given: the % may be the effect or the level left
Rattus norvegicus [29] = assay: Toxicity in rat assessed as increase in adrenal weight at 100 mg/kg, po qd administered for 5 days measured on day 6 relative to control; assay type: organism-based; design: dose 100 mg/kg, route oral; conditions: in vivo, 120 h
Rattus norvegicus [30] = assay: Antiobesity activity in rat assessed as reduction in body weight at 100 mg/kg, po qd administered for 5 days measured on day 6 relative to control; assay type: functional; design: scale not given: the % may be the effect or the level left
Rattus norvegicus [31] = assay: Toxicity in rat assessed as increase in liver weight at 100 mg/kg, po qd administered for 5 days measured on day 6 relative to control; assay type: organism-based; design: dose 100 mg/kg, route oral; conditions: in vivo, 120 h
Mus musculus [32] = assay: as §1; assay type: organism-based; conditions: in vivo, 504 h
Mus musculus [33] = assay: Antiobesity activity in mouse assessed as reduction in utero fat at 0.005% administered every day through diet for 10 days measured after day 10 relative to control; assay type: functional; design: scale not given: the % may be the effect or the level left
Canis familiaris [34] = assay: Antiobesity activity in Beagle dog assessed as decrease in food intake at 4 mg/kg administered every day through gelatin capsule for 6 weeks measured 9 days post last dose; assay type: functional, organism-based; design: dose 4 mg/kg; conditions: Canis lupus familiaris
Mus musculus [35] = assay: Effect on blood glucose level in mouse at 0.04% administered every day through diet for 10 days measured on day 10 by glucose oxidase method; assay type: functional, organism-based

Row | Structure (SMILES) | Activity (Mus musculus [1]) | MTD at 504 h [2] [mg/kg] | Activity (Mus musculus [3]) | selectivity ratio [4] | ED25 (Mus musculus [5]) [mg/kg] | Activity (Mus musculus [22]) | further results
1 | CC(C)NCC(O)COc1c(C(C)(C)C)cc(/C=C/c2ccc(O)cc2)cc1C(C)(C)C.O=C(O)/C=C\C(=O)O (stereo unspecified) | 20% |  |  |  |  |  | 
2 | COc1ccc(/C=C/c2cc(C(C)(C)C)c(OCC(O)CNC(C)C)c(C(C)(C)C)c2)cc1 (stereo unspecified) | 26% | 25 | Non-toxic | 1.25 | 20 |  | 
3 | CC(C)NCC(O)COc1c(C(C)(C)C)cc(/C=C/c2ccccc2)cc1C(C)(C)C (racemic) [listing 1 of 2 here] |  | 50 | Non-toxic | 5 | 10 |  | Activity (Mus musculus [6]): 26%; Activity (Rattus norvegicus [7]): Toxic; Activity (Rattus norvegicus [8]): 10%; Activity (Rattus norvegicus [9]): 79%; Activity (Canis familiaris [10]): Toxic; Activity (Rattus norvegicus [11]): 9%; Activity (Rattus norvegicus [12]): Non-toxic; Activity (Mus musculus [13]): 27%; Activity (Rattus norvegicus [14]): 10%; Activity (Rattus norvegicus [15]): 3.4%; Activity (Canis familiaris [16]): 13%; Activity (Rhesus monkey): Non-toxic; Activity (Canis familiaris [17]): 40%; Activity (Rattus norvegicus [18]): 16%; Activity (Rattus norvegicus [19]): 21%; Activity (Rattus norvegicus [20]): 9%; Activity (Rattus norvegicus [21]): 35%
4 | C[C@H](N)Cc1ccccc1 [DEXTROAMPHETAMINE] |  |  |  |  |  | 59% | Activity (Mus musculus [6]): 34%; Activity (Rattus norvegicus [7]): Toxic
5 | CC(C)NCC(O)COc1c(C(C)(C)C)cc(/C=C/c2cccs2)cc1C(C)(C)C (stereo unspecified) | 30% | < 25 | Non-toxic | < 4.1 | 6 |  | Activity (Mus musculus [23]): 46%; Activity (Mus musculus [24]): inactive
6 | CCNC(C)Cc1cccc(C(F)(F)F)c1 (stereo unspecified) [FENFLURAMINE] |  |  |  |  |  | inactive | Activity (Canis familiaris [25]): Non-toxic; Activity (Mus musculus [26]): 20%
7 | CC(C)NCC(O)COc1c(C(C)(C)C)cc(-c2ccc(Cl)cc2)cc1C(C)(C)C (stereo unspecified) |  | 100 | Non-toxic | 3.6 | 30 | 36% | 
8 | CC(C)NCC(O)COc1c(C(C)(C)C)cc(-c2ccccc2)cc1C(C)(C)C.Cl (stereo unspecified) |  | 100 | Toxic | 5 | 20 | 28% | Activity (Rattus norvegicus [27]): 28%; Activity (Rattus norvegicus [28]): 51%; Activity (Rattus norvegicus [29]): 16%; Activity (Rattus norvegicus [30]): 4%; Activity (Rattus norvegicus [31]): 21%
9 | CC(C)NCC(O)COc1ccc(-c2cccs2)cc1 (stereo unspecified) |  |  |  |  |  |  | Activity (Mus musculus [6]): 34%; Activity (Mus musculus [32]): Toxic
10 | CC(C)NCC(O)COc1ccc(-c2ccc(Cl)cc2)cc1.Cl (stereo unspecified) |  | 25 | Non-toxic | 0.5 | 50 | 23% | 
11 | CCc1cc(/C=C/c2ccccc2)cc(CC)c1OCC(O)CNC(C)C (stereo unspecified) | 20% | 75 | Non-toxic | 1.7 | 45 |  | 
12 | CC(C)NCC(O)COc1ccc(Oc2ccc(Cl)cc2)cc1 (stereo unspecified) | 25% | 100 | Non-toxic | 5.5 | 18 |  | Activity (Rattus norvegicus [27]): 18%; Activity (Rattus norvegicus [28]): 22%; Activity (Rattus norvegicus [29]): 8%; Activity (Rattus norvegicus [30]): 1%; Activity (Rattus norvegicus [31]): 11%
13 | CC(C)NCC(O)COc1c(C(C)(C)C)cc(/C=C/c2ccccc2)cc1C(C)(C)C (stereo unspecified) | inactive |  |  |  |  |  | 
14 | CC(C)NCC(O)COc1c(C(C)(C)C)cc(/C=C/c2ccc(Cl)cc2)cc1C(C)(C)C (stereo unspecified) |  | 100 | Non-toxic | 1 | 100 | 22% | 
15 | CC(C)NCC(O)COc1c(C(C)(C)C)cc(-c2cccs2)cc1C(C)(C)C.O=C(O)/C=C\C(=O)O (stereo unspecified) |  |  |  |  |  |  | Activity (Mus musculus [32]): Toxic; Activity (Mus musculus [33]): 33%
16 | CC(C)NCC(O)COc1c(C(C)(C)C)cc(/C=C/c2ccc(Br)cc2)cc1C(C)(C)C (stereo unspecified) | 31% | 150 | Non-toxic | 4.3 | 34 |  | 
17 | CC(C)NCC(O)COc1c(C(C)(C)C)cc(Oc2ccccc2)cc1C(C)(C)C.O=C(O)/C=C\C(=O)O (stereo unspecified) |  | 100 | Non-toxic |  | 20 | 20% | 
18 | CC(C)NCC(O)COc1c(C(C)(C)C)cc(/C=C/c2ccccc2)cc1C(C)(C)C (racemic) [listing 2 of 2 here] |  |  |  |  |  |  | Activity (Canis familiaris [34]): inactive; Activity (Mus musculus [35]): inactive
19 | CC(C)NCC(O)COc1c(C(C)(C)C)cc(/C=C/c2cccc(Cl)c2)cc1C(C)(C)C (stereo unspecified) |  | 100 | Non-toxic | 1.4 | 72 | 21% | 

From ChEMBL document CHEMBL3243923, “Linked Aryl Aryloxypropanolamines as a new class of lipid catabolis agents” (J Med Chem, 1978)
